How the values were obtained:
[1] = target: T1, Bone morphogenetic protein 1 (Homo sapiens, UniProt P13497); assay: Inhibition of C-terminal FLAG-6x-His epitope tagged and N-terminal human RAGE signal sequence tagged human BMP1 (23 to 721 amino acids) expressed in CHO-E1 cells pre-incubated for 10 mins before promyostatin peptide substrate addition and measured after 30 mins using 50 nM BMP1 by FRET based assay; format: cell-based
T1 sequence (P13497 whole entry): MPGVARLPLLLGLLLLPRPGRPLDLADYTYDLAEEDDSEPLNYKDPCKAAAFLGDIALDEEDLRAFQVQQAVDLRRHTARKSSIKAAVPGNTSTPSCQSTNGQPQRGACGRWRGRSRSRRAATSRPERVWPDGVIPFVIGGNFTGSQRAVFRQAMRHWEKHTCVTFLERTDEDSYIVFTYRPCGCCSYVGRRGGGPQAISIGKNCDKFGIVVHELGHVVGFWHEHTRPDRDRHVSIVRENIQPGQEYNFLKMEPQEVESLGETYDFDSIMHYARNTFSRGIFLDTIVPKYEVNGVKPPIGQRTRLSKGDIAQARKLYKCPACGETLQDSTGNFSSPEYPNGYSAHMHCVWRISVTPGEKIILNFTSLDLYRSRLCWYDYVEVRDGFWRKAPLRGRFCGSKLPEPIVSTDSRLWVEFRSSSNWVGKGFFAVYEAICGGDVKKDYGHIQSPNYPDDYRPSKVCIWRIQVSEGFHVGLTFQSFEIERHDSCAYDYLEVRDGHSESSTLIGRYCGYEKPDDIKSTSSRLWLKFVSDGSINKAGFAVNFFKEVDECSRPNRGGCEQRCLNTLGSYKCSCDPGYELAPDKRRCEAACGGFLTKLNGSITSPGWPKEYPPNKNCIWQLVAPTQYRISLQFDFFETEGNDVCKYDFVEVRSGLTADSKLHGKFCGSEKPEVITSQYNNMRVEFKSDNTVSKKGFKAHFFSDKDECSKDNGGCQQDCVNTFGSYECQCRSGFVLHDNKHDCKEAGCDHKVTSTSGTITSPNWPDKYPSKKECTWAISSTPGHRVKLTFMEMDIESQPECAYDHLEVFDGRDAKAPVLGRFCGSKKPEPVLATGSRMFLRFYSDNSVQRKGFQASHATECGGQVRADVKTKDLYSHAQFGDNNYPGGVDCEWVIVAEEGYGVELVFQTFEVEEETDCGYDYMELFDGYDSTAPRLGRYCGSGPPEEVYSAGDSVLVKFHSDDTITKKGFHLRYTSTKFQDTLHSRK

[2] = Reduction in mature collagen deposition levels in human cardiac fibroblasts incubated for 24 to 48 hrs by immunostaining based assay; format: functional
How it was run: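 Human cardiac fibroblasts in 96-well plates were treated in ficoll crowding EMEM with 100 μM ascorbic acid and under 0.3% DMSO, for 24 to 48 hr at 37° C. Cells were fixed in −20° C methanol for 10 min. They were stained with anti-mature collagen I antibody, Alexa647 secondary antibody and Hoechst, then imaged on an Operetta system. Collagen intensity was normalised to nuclei count per field, and IC50 was fitted in GraphPad Prism.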

[3] = Reduction in PICP levels in human cardiac fibroblasts incubated for 24 to 48 hrs by ELISA; format: functional
How it was run: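 Human cardiac fibroblasts (passage 6 or below) were seeded at 10,000 to 15,000 cells per well in 96-well plates. The next day they were treated in ficoll crowding EMEM with 100 μM ascorbic acid and under 0.3% DMSO, for 24 to 48 hr at 37° C. Procollagen I C-terminal propeptide in the medium was measured with a Quidel ELISA. IC50 came from fitting levels relative to untreated controls to a log(inhibitor)-response equation in GraphPad Prism.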

[4] = target: Tolloid-like protein 1 (Homo sapiens, UniProt O43897, I156V/N221S/V284A); assay: Inhibition of recombinant human TLL1 I156V/N221S/V284A mutant expressed in CHOE1A cells pre-incubated for 10 mins before promyostatin peptide substrate addition and measured after 60 mins by FRET based assay; format: cell-based
[5] = target: T2, Tolloid-like protein 2 (Homo sapiens, UniProt Q9Y6L7); assay: Inhibition of C-terminal Avi-6x-His epitope tagged and N-terminal human RAGE signal sequence tagged recombinant human TLL2 (26 to 1015 amino acids) expressed in CHOE1A cells incubated for 60 mins with promyostatin peptide substrate by FRET based assay; format: cell-based
T2 sequence (Q9Y6L7 whole entry): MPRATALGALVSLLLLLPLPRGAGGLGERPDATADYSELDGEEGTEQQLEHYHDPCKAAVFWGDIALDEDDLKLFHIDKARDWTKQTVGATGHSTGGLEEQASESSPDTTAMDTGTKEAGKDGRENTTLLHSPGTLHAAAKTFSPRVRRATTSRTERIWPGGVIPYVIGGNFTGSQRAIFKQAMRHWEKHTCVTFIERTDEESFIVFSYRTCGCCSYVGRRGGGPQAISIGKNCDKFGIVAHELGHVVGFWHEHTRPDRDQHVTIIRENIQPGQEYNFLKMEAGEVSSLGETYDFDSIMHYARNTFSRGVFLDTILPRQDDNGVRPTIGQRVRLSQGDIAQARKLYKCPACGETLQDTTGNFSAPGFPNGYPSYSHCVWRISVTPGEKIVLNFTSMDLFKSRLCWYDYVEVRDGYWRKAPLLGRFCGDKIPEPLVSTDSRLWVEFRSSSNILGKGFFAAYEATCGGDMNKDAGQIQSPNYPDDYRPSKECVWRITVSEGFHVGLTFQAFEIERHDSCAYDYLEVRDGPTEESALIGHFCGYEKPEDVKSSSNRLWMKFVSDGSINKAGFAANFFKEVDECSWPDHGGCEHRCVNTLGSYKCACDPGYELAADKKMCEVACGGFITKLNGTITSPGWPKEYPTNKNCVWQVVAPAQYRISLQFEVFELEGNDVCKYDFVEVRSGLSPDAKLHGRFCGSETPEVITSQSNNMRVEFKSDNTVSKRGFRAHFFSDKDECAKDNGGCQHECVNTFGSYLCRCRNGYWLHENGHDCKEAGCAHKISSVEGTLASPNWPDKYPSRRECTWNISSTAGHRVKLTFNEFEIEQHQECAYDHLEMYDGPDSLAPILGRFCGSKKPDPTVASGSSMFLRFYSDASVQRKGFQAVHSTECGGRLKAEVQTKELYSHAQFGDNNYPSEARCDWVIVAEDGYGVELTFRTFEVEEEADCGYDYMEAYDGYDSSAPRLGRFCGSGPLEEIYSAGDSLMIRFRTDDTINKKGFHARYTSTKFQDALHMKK

[6] = target: T1, Bone morphogenetic protein 1; assay: Inhibition of C-terminal FLAG-6x-His epitope tagged and N-terminal human RAGE signal sequence tagged human BMP1 (23 to 721 amino acids) expressed in CHO-E1 cells pre-incubated for 10 mins before promyostatin peptide substrate addition and measured after 60 mins using 0.5 nM BMP1 by FRET based assay; format: cell-based

Sequence of Tolloid-like protein 1 (O43897 148-1013 I156V/N221S/V284A limits assumed): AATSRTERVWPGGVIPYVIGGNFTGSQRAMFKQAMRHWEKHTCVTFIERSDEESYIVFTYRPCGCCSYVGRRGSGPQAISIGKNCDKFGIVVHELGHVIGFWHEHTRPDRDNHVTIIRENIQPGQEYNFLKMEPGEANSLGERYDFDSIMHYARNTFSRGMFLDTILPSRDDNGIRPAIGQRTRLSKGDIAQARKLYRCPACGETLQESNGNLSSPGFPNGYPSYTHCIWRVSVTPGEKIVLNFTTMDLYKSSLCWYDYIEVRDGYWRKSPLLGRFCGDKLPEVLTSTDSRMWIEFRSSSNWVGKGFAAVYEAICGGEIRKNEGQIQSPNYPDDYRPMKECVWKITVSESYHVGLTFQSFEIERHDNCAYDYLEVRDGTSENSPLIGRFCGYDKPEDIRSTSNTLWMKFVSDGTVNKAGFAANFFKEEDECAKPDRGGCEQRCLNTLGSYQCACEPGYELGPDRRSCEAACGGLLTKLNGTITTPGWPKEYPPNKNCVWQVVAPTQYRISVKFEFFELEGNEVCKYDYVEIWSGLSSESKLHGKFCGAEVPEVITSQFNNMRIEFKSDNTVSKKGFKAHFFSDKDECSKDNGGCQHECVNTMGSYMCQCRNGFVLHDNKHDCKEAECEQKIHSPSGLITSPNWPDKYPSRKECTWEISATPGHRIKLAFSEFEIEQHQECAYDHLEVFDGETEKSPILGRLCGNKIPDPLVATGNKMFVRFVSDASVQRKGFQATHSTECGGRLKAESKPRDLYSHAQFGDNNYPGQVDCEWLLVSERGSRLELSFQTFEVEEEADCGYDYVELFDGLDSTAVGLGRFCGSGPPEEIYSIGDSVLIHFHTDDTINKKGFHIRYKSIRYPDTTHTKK

`CCOc1cc(C(=O)N(CC(=O)O)CC(=O)O)cc(-c2ccc(C(=O)NCNC(=O)[C@H](CCc3ccc(F)cc3F)[C@@H](CC)N(O)C=O)o2)c1` gave an IC50 [1] of less than 200 nM, an IC50 [2] of less than 1000 nM and an IC50 [3] of less than 3980 nM. The IC50 [4] was less than 398 nM, the IC50 [5] was less than 794 nM and the IC50 [6] was less than 126 nM.

In the case of `CCCCC[C@@H](C(=O)NCNC(=O)c1ccc(-c2ccc(C(=O)N[C@@H](CC(=O)O)C(=O)O)c(OCC(=O)O)c2)o1)[C@@H](CC)N(O)C=O`, the IC50 [1] is reported as less than 200 nM, the IC50 [2] is reported as less than 1000 nM and the IC50 [3] is reported as less than 3980 nM. It also gave an IC50 [4] of less than 398 nM, an IC50 [5] of less than 794 nM and an IC50 [6] of less than 126 nM.

For `CCCCC[C@@H](C(=O)NCNC(=O)c1ccc(-c2cc(O)cc(C(=O)O)c2)o1)[C@@H](CC)N(O)C=O`, the IC50 [1] was less than 200 nM, the IC50 [2] was less than 1000 nM and the IC50 [3] was less than 3980 nM. The IC50 [4] was less than 398 nM, the IC50 [5] was less than 794 nM and the IC50 [6] was less than 126 nM.

`CCCCC[C@@H](C(=O)NCNC(=O)c1ccc(-c2cc(O)c(C(=O)O)c(OCC)c2)o1)[C@@H](CC)N(O)C=O` gave an IC50 [1] of less than 200 nM, an IC50 [2] of less than 1000 nM and an IC50 [3] of less than 3980 nM. The IC50 [4] was less than 398 nM, the IC50 [5] was less than 794 nM and the IC50 [6] was less than 126 nM.

`CCCCC[C@@H](C(=O)NCNC(=O)c1ccc(-c2ccc(C(=O)N[C@H](CC(=O)O)C(=O)O)c(OCC)c2)o1)[C@@H](CC)N(O)C=O` showed an IC50 [1] of less than 200 nM, an IC50 [2] of less than 1000 nM and an IC50 [3] of less than 3980 nM. It also gave an IC50 [4] of less than 398 nM, an IC50 [5] of less than 794 nM and an IC50 [6] of less than 126 nM.

In the case of `CCCCC[C@@H](C(=O)NCNC(=O)c1ccc(-c2cc(OCC(=O)O)cc(C(=O)O)c2)o1)[C@@H](CC)N(O)C=O`, the IC50 [1] is reported as less than 200 nM, the IC50 [2] is reported as less than 1000 nM and the IC50 [3] is reported as less than 3980 nM. The IC50 [4] was less than 398 nM, the IC50 [5] was less than 794 nM and the IC50 [6] was less than 126 nM.

In the case of `CCOc1cc(-c2ccc(C(=O)NCNC(=O)[C@H](CCc3ccccc3)[C@@H](CC)N(O)C=O)o2)ccc1C(=O)N[C@@H](CC(=O)O)C(=O)O`, the IC50 [1] is reported as less than 200 nM, the IC50 [2] is reported as less than 1000 nM and the IC50 [3] is reported as less than 3980 nM. It also gave an IC50 [4] of less than 398 nM, an IC50 [5] of less than 794 nM and an IC50 [6] of less than 126 nM.

Compound `CCOc1cc(-c2ccc(C(=O)NCNC(=O)[C@H](CCc3ccccc3)[C@@H](CC)N(O)C=O)o2)ccc1C(=O)N(CC(=O)O)CC(=O)O` has an IC50 [1] of less than 200 nM, an IC50 [2] of less than 1000 nM and an IC50 [3] of less than 3980 nM. The IC50 [4] was less than 398 nM, the IC50 [5] was less than 794 nM and the IC50 [6] was less than 126 nM.

In the case of `CCCCC[C@@H](C(=O)NCNC(=O)c1ccc(-c2ccc(C(=O)NCP(=O)(O)O)c(OCC)c2)o1)[C@@H](CC)N(O)C=O`, the IC50 [1] is reported as less than 200 nM, the IC50 [2] is reported as less than 1000 nM and the IC50 [3] is reported as less than 3980 nM. It also gave an IC50 [4] of less than 398 nM, an IC50 [5] of less than 794 nM and an IC50 [6] of less than 126 nM.

For `CCCCC[C@@H](C(=O)NCNC(=O)c1ccc(-c2cc(OCC(=O)O)cc(C(=O)O)c2O)o1)[C@@H](CC)N(O)C=O`, the IC50 [1] was less than 200 nM, the IC50 [2] was less than 1000 nM and the IC50 [3] was less than 3980 nM. It also gave an IC50 [4] of less than 398 nM, an IC50 [5] of less than 794 nM and an IC50 [6] of less than 126 nM.

With `CCOc1cc(-c2ccc(C(=O)NCNC(=O)[C@H](CCc3ccc(F)cc3F)[C@@H](CC)N(O)C=O)o2)ccc1C(=O)N[C@@H](CC(=O)O)C(=O)O` the IC50 [1] was less than 200 nM, the IC50 [2] was less than 1000 nM and the IC50 [3] was less than 3980 nM. It also gave an IC50 [4] of less than 398 nM, an IC50 [5] of less than 794 nM and an IC50 [6] of less than 126 nM.
